From ChEMBL document CHEMBL3044650, “Interaction studies of E. coli uracil phosphoribosyltransferase with 5-fluorouracil for potent anti cancer activity” (Med Chem Res, 2012)

Target: T1, Uracil phosphoribosyltransferase (Escherichia coli (strain K12), UniProt P0A8F0)
T1 sequence (P0A8F0 whole entry): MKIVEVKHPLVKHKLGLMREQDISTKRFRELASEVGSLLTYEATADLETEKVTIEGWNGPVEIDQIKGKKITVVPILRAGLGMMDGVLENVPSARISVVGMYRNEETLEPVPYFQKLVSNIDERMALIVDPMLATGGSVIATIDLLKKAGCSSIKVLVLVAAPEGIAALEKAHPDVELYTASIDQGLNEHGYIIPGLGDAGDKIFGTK
Assay: Inhibition of Escherichia coli K-12 MTCC 1302 UPRT activity by spectrophotometry

O=c1[nH]cc(F)c(=O)[nH]1 [FLUOROURACIL]
Ki: 13 µM
